Data as given in patent US20250059187A1, “COVALENTLY BINDING INHIBITORS OF G12S, G12D AND/OR G12E MUTANTS OF K-RAS GTPASE” (The Regents of the University of California, priority 2021, published 2025).

How the values were obtained:
[1] = test system: A549 cells (homozygous KRAS p.G12S mutation); assay: Immunoblot and Raf-RBD pulldown in A549 cells; format: cell-based; details: 2 h
Experimental: Cells were passed for at least two generations after cryorecovery before they were used for assays. All cell lines were tested mycoplasma negative using MycoAlert™ Mycoplasma Detection Kit (Lonza). When indicated, cells were treated with drugs at 40-60% confluency at a final DMSO concentration of 1%. At the end of treatment period, cells were placed on ice. Unless otherwise indicated, adherent cells were washed once with ice-cold PBS (1 mL), scraped with a spatula, and pelleted by centrifugation (500×g, 5 min). Suspension cells were pelleted by centrifugation (500×g, 5 min), washed with 1 mL ice-cold PBS, and pelleted again. Cells were lysed in RIPA buffer supplemented with protease and phosphatase inhibitors (cOmplete and phosSTOP, Roche) on ice for 10 min. For RBD pulldown experiments, cells were lysed in Co-IP Lysis Buffer in lieu of RIPA buffer. Lysates were clarified by high-speed centrifugation (19,000×g, 10 min). Concentrations of lysates were determined with protein BCA assay (Thermo Fisher) and adjusted to 2 mg/mL with additional RIPA buffer (or Co-IP Lysis Buffer). Samples were mixed with 5×SDS Loading Dye and heated at 95° C. for 5 min.
Ras·GTP pulldown was performed with GST-RBD agarose beads (Cytoskeleton, 10 μL, 30 μg loaded GST-RBD). 50 μL lysate (2 mg/mL) was mixed with 10 μL beads, and the suspension was incubated at 4° C. for 1 h with constant end-to-end rotation. The beads were settled by centrifugation (500×g, 5 min) and the supernatant was carefully removed. The beads were washed with 2×500 μL ice-cold Co-IP wash buffer. Bound protein was eluted with 10 μL 2×SDS Loading Buffer.
Membranes were blocked in 5% BSA-TBST for 1 h at 23° C. […] After washing the membrane three times with TBST (5 min each wash), secondary antibodies (goat anti-rabbit IgG-IRDye 800 and goat anti-mouse IgG-IRDye 680, Li-COR) were added as solutions in 5% skim milk-TBST at the dilutions recommended by the manufacturer. Secondary antibody binding was allowed to proceed for 1 h at 23° C. The membrane was washed three times with TBST (5 min each wash) and imaged on a Li-COR Odyssey fluorescence imager.

[2] = molecular target: T1, K-Ras G12D (Homo sapiens, UniProt P01116, G12D); assay: Covalent modification of test protein after incubation with compound; format: binding; details: 24-h incubation with 100 μM compound at 23° C. at pH 7.5
T1 construct: human K-Ras (G12D, aa 1-169); 6xHis tag + TEV cleavage site (N, cleaved yes); made in house; host or cells: E. coli BL21(DE3)

[3] = molecular target: T2, K-Ras G12E (Homo sapiens, UniProt P01116, G12E); assay: as above; format: binding; details: 24-h incubation with 100 μM compound at 23° C. at pH 7.5
T2 construct: human K-Ras (G12E, aa 1-169); 6xHis tag + TEV cleavage site (N, cleaved yes); made in house; host or cells: E. coli BL21(DE3)

[4] = molecular target: K-Ras(G12S) (Homo sapiens, UniProt P01116, G12S); assay: Covalent modification of recombinant K-Ras(G12S) by whole-protein mass spectrometry; format: binding; parameters: human K-Ras (G12S, aa 1-169); 6xHis tag + TEV cleavage site (N, cleaved yes); made in house; host or cells: E. coli BL21(DE3); details: 23° C.
Method in brief: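 Recombinant K-Ras diluted to 400 nM or 1 μM in 20 mM HEPES pH 7.5, 150 mM NaCl, 1 mM MgCl2 and incubated with compound added from 100× DMSO stock. Modification extent measured by electrospray whole-protein mass spectrometry; kinetics used 1:1 mixing with 400 nM protein and injection time stamps for elapsed time.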

For `O=C1O[C@H]2CN(c3nc(OCC45CCCN4CCC5)nc4c(F)c(-c5cccc6cccc(Cl)c56)ncc34)CC[C@@H]12` [5′], the “effects on phospho-Akt, phospho-Erk and Ras·GTP levels” value ([1]; 10 μM) was “nearly complete loss of Ras·GTP and concomitant inhibition of phospho-Erk”, the IC50 ([1]; Homo sapiens, A549 cells, read-out: apparent IC50, inhibition of Ras signaling) was roughly 3000 nM and the “% covalent modification of K-Ras G12D” value [2] was 0%. For the same molecule, the “% covalent modification of K-Ras G12E” value [3] was 0%, the “covalent reaction with K-Ras(G12S)·GDP” value ([4]; 10 μM compound) was “enhanced reaction” and the “time to 100% modification of K-Ras(G12S)·GDP” value ([4]; 10 μM) was less than 10 min. The “% covalent modification of K-Ras G12S” value ([4]; 24-h incubation, 100 μM compound, pH 7.5) was 100%.
